Assay results taken from patent US8247556B2, “Method for preparing 6-substituted-7-aza-indoles” (Amgen Inc., priority 2005, dated 2012).

Key:
[1] = test system: VEGF-stimulated HUVEC proliferation (Human Umbilical Vein Endothelial cells); assay: HUVEC Proliferation Assay; assay type: cell-based; details: VEGF 50 ng/mL, 72 h, CyQuant fluorescent dye, read-out: inhibited VEGF-stimulated HUVEC proliferation at a level
Procedure: Human Umbilical Vein Endothelial cells are purchased from Clonetics, Inc., as cryopreserved cells harvested from a pool of donors. These cells, at passage 1, are thawed and expanded in EBM-2 complete medium, until passage 2 or 3. The cells are trypsinized, washed in DMEM+10% FBS+antibiotics, and spun at 1000 rpm for 10 min. Prior to centrifugation of the cells, a small amount is collected for a cell count. After centrifugation, the medium is discarded, and the cells are resuspended in the appropriate volume of DMEM+10% FBS+antibiotics to achieve a concentration of 3×10^5 cells/mL. Another cell count is performed to confirm the cell concentration. The cells are diluted to 3×10^4 cells/mL in DMEM+10% FBS+antibiotics, and 100 μL of cells are added to a 96-well plate. The cells are incubated at 37° C. for 22 h.
Prior to the completion of the incubation period, compound dilutions are prepared. Five-point, five-fold serial dilutions are prepared in DMSO, at concentrations 400-fold greater than the final concentrations desired. 2.5 μL of each compound dilution are diluted further in a total of 1 mL DMEM+10% FBS+antibiotics (400× dilution). Medium containing 0.25% DMSO is also prepared for the 0 μM compound sample. At the 22 h time point, the medium is removed from the cells, and 100 μL of each compound dilution is added. The cells are incubated at 37° C. for 2-3 h.
During the compound pre-incubation period, the growth factors are diluted to the appropriate concentrations. Solutions of DMEM+10% FBS+antibiotics, containing either VEGF or bFGF at the following concentrations: 50, 10, 2, 0.4, 0.08, and 0 ng/mL are prepared. For the compound-treated cells, solutions of VEGF at 550 ng/mL or bFGF at 220 ng/mL for 50 ng/mL or 20 ng/mL final concentrations, respectively, are prepared since 10 μL of each will be added to the cells (110 μL final volume). At the appropriate time after adding the compounds, the growth factors are added. VEGF is added to one set of plates, while bFGF is added to another set of plates. For the growth factor control curves, the media on wells B4-G6 of plates 1 and 2 are replaced with media containing VEGF or bFGF at the varying concentrations (50-0 ng/mL). The cells are incubated at 37° C. for an additional 72 h.
At the completion of the 72 h incubation period, the medium is removed, and the cells are washed twice with PBS. After the second wash with PBS, the plates are tapped gently to remove excess PBS, and the cells are placed at −70° C. for at least 30 min. The cells are thawed and analyzed using the CyQuant fluorescent dye (Molecular Probes C-7026), following the manufacturer's recommendations. The plates are read on a Victor/Wallac 1420 workstation at 485 nm/530 nm (excitation/emission). Raw data are collected and analyzed using a 4-parameter fit equation in XLFit. IC50 values are then determined.

CYP 2D6 = target: T1, CYP 2D6 (Homo sapiens, UniProt P10635); assay: Human Liver Microsome CYP 2D6 Inhibition; assay type: in vitro ADME; details: human liver microsomes, bufuralol substrate; read-out: inhibited CYP2D6 microsomes, IC50
T1 construct: followed by 555.6 ml of 20 mg/mL HLM (BD Gentest); tissue BD Gentest; host or cells: human liver microsomes
Procedure: Determining the IC-50 for Human Liver Microsome CYP 2D6 Inhibition
Postassium Phosphate Buffer pH 7.4 (39.333 mL) is chilled in an ice bath and added to a 50 ml plastic tube. A 3.2 mM bufuralol solution is prepared. 111.1 ul of 3.2 mM bufuralol is added to the buffer followed by 555.6 ml of 20 mg/mL HLM (BD Gentest). The incubation mixture was gently inverted and equilibrated at 37° C. for 5 min. A stock inhibitor solution is prepared, such as in DMSO. Incubation mixture (801 ul) is added into 96-well, 1.2 mL plastic tubes. Inhibitor is added at various concentrations (e.g. 30 μM to […]). The tubes are sealed and mix by inverting 5 times gently. The incubation mixture containing inhibitor (270 μL) is added by aliquot into wells of a 1 mL, 96-well block (duplicate). The block is placed into a 37° C. water bath and equilibrated for 3 minutes. 10 mM NADPH (30 ml) is added to all samples. After 5 min, the reactions are stopped by adding 300 ml of Quench Solution [0.1% TFA in CH3CN]. 1′-OH-bufuralol-d9 (750 ng/mL 30 μL) is added, the block is gently vortexed then centrifuged at 3000 rpm for 10 min at 4° C. 50 μL of supernatant from all samples is added by aliquot into a shorter, 96-well block. The aliquoted supernatants are pooled with other assay(s) and HPLC Grade Water (50 μL) is added to all samples. After covering and shaking by vortex gently for 2 minutes, the solutions were analyzed by LC-MS (API 3000, 5% MeOH w/0.1% AcOH to 95% MeOH w/0.1% AcOH). 500 nM quinidine is used as a control.

T1 sequence (P10635 whole entry): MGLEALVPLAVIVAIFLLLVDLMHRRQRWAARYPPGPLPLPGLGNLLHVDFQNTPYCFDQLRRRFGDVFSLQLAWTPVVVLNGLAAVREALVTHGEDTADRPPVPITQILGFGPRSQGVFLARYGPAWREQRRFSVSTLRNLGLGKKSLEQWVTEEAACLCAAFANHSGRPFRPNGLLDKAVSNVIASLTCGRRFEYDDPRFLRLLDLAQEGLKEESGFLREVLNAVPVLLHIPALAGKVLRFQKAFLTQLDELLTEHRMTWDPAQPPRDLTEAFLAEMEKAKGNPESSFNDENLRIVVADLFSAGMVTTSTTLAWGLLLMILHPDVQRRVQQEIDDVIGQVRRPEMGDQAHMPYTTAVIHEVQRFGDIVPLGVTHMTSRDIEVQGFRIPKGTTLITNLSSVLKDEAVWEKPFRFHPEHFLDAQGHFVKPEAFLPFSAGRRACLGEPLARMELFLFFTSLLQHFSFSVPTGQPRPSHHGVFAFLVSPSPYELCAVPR

| IC50 (CYP 2D6) [nM] | SMILES | IC50 [1] [nM] |
| --- | --- | --- |
| > 20000 | CC(=O)N1CCC(C)(C)c2ccc(NC(=O)c3cccnc3NCc3ccnc4[nH]ccc34)cc21 [Example 52, N-(1-Acetyl-4,4-dimethyl-1,2,3,4-tetrahydro-quinolin-7-yl)-2-[(1H-pyrrolo[2,3-b]pyridin-4-ylmethyl)-amino]-nicotinamide] | < 500 |
| > 20000 | CC1(C)CN(C(=O)CN)c2cc(NC(=O)c3cccnc3NCc3ccnc4[nH]ccc34)ccc21 [Example 21, N-(1-Glycyl-3,3-dimethyl-2,3-dihydro-1H-indol-6-yl)-2-[(1H-pyrrolo[2,3-b]pyridin-4-ylmethyl)amino]nicotinamide] | < 500 |
| > 20000 | CC(=O)N1CC(C)(C)c2ccc(NC(=O)c3cccnc3NCc3ccnc4[nH]ccc34)cc21 [Example 6, N-(1-Acetyl-3,3-dimethyl-2,3-dihydro-1H-indol-6-yl)-2-[(1H-pyrrolo[2,3-b]pyridin-4-ylmethyl)amino]nicotinamide] | < 500 |
| > 20000 | Cc1nc2cc(NC(=O)c3cccnc3NCc3ccnc4[nH]ncc34)ccc2s1 [Example 70, N-(2-Methyl-1,3-benzothiazol-5-yl)-2-((1H-pyrazolo[3,4-b]pyridin-4-ylmethyl)amino)-3-pyridinecarboxamide] | < 500 |
| > 20000 | CC(=O)N1CC(C)(C)c2ccc(NC(=O)c3cccnc3NCc3ccnc4c3CCN4)cc21 [Example 29, N-(1-Acetyl-3,3-dimethyl-2,3-dihydro-1H-indol-6-yl)-2-[(2,3-dihydro-1H-pyrrolo[2,3-b]pyridin-4-ylmethyl)amino]nicotinamide] | < 500 |
| > 20000 | CC1(C)CN(C(=O)CN)Cc2cc(NC(=O)c3cccnc3NCc3ccnc4[nH]ccc34)ccc21 [Example 15, N-(2-Glycyl-4,4-dimethyl-1,2,3,4-tetrahydroisoquinolin-7-yl)-2-[(1H-pyrrolo[2,3-b]pyridin-4-ylmethyl)amino]nicotinamide] | – |
| – | O=C(Nc1cc(O[C@@H]2CCOC2)cc(C(F)(F)F)c1)c1cccnc1NCc1ccnc2[nH]ccc12 [Example 47, 2-[(1H-pyrrolo[2,3-b]pyridin-4-ylmethyl)amino]-N-[3-[(3R)-tetrahydrofuran-3-yloxy]-5-(trifluoromethyl)phenyl]nicotinamide] | < 500 |
| – | CC1(C)CNCc2cc(NC(=O)c3cccnc3NCc3ccnc4[nH]ccc34)cnc21 [Example 11] | < 500 |
| – | CC1(C)CN(C(=O)[C@@H]2CCN2)c2cc(NC(=O)c3cccnc3NCc3ccnc4[nH]ccc34)ccc21 [Example 23, N-{1-[(2S)-Azetidin-2-ylcarbonyl]-3,3-dimethyl-2,3-dihydro-1H-indol-6-yl}-2-[(1H-pyrrolo[2,3-b]pyridin-4-ylmethyl)amino]nicotinamide] | < 500 |
| – | O=C(Nc1ccc(Cl)cc1)c1cc(F)cnc1NCc1ccnc2[nH]ccc12 [Example 91, N-(4-chlorophenyl)-5-fluoro-2-((1H-pyrrolo[2,3-b]pyridin-4-ylmethyl)amino)-3-pyridinecarboxamide] | < 500 |
| – | O=C(Nc1ccc(Cl)c(C(F)(F)F)c1)c1cc(F)cnc1NCc1ccnc2[nH]ncc12 [Example 119, N-(4-Chloro-3-(trifluoromethyl)phenyl)-5-fluoro-2-((1H-pyrazolo[3,4-b]pyridin-4-ylmethyl)amino)-3-pyridinecarboxamide] | < 500 |
| – | O=C(Nc1ccc(C(O)(C(F)(F)F)C(F)(F)F)cc1)c1cccnc1NCc1ccnc2[nH]ccc12 [Example 17, 2-[(1H-Pyrrolo[2,3-b]pyridin-4-ylmethyl)amino]-N-{4-[2,2,2-trifluoro-1-hydroxy-1-(trifluoromethyl)ethyl]phenyl}nicotinamide] | < 500 |
| – | O=C(Nc1ccc2ncccc2c1)c1cccnc1NCc1ccnc2[nH]ccc12 [Example 53, 2-[(1H-Pyrrolo[2,3-b]pyridin-4-ylmethyl)-amino]-N-quinolin-6-yl-nicotinamide] | < 500 |
| – | COC(c1ccc(NC(=O)c2cccnc2NCc2ccnc3[nH]ccc23)cc1)(C(F)(F)F)C(F)(F)F [Example 44, 2-[(1H-Pyrrolo[2,3-b]pyridin-4-ylmethyl)-amino]-N-[4-(2,2,2-trifluoro-1-methoxy-1-trifluoromethyl-ethyl)-phenyl]-nicotinamide] | < 500 |
| – | O=C(Nc1ccc2ccncc2c1)c1cccnc1NCc1ccnc2[nH]ccc12 [Example 55, N-Isoquinolin-7-yl-2-[(1H-pyrrolo[2,3-b]pyridin-4-ylmethyl)-amino]-nicotinamide] | < 500 |
| – | CN1CCC(Cc2cc(NC(=O)c3cccnc3NCc3ccnc4[nH]ccc34)cc(C(F)(F)F)c2)CC1 [Example 58, N-[3-(1-Methyl-piperidin-4-ylmethyl)-5-trifluoromethyl-phenyl]-2-[(1H-pyrrolo[2,3-b]pyridin-4-ylmethyl)-amino]-nicotinamide] | < 500 |
| – | CC1(C)CCNc2cc(NC(=O)c3cccnc3NCc3ccnc4c3CC(=O)N4)ccc21 [Example 73, N-(4,4-Dimethyl-1,2,3,4-tetrahydro-quinolin-7-yl)-2-[(2-oxo-2,3-dihydro-1H-pyrrolo[2,3-b]pyridin-4-ylmethyl)-amino]-nicotinamide] | < 500 |
| – | O=C(Nc1ccc(C(F)(F)C(F)(F)F)c(OCCN2CCCC2)c1)c1cccnc1NCc1ccnc2[nH]ccc12 [Example 63, N-[4-pentafluoroethyl-3-(2-pyrrolidin-1-yl-ethoxy)-phenyl]-2-[(1H-pyrrolo[2,3-b]pyridin-4-ylmethyl)-amino]-nicotinamide] | < 500 |
| – | CN1CCN(Cc2cc(NC(=O)c3cccnc3NCc3ccnc4[nH]ccc34)ccc2C(F)(F)C(F)(F)F)CC1 [Example 46, N-[3-(4-Methyl-piperazin-1-ylmethyl)-4-pentafluoroethyl-phenyl]-2-[(1H-pyrrolo[2,3-b]pyridin-4-ylmethyl)-amino]-nicotinamide] | < 500 |
| – | O=C(Nc1cccc(C(F)(F)F)c1)c1cc(F)cnc1NCc1ccnc2[nH]ncc12 [Example 122, 5-Fluoro-2-((1H-pyrazolo[3,4-b]pyridin-4-ylmethyl)amino)-N-(3-(trifluoromethyl)phenyl)-3-pyridinecarboxamide] | < 500 |
| – | Cc1nc2cc(NC(=O)c3cc(F)cnc3NCc3ccnc4c3CCN4)ccc2s1 [Example 115, 2-((2,3-dihydro-1H-pyrrolo[2,3-b]pyridin-4-ylmethyl)amino)-5-fluoro-N-(2-methyl-1,3-benzothiazol-5-yl)-3-pyridinecarboxamide] | < 500 |
| – | Cc1nc2cc(NC(=O)c3cc(F)cnc3NCc3ccnc4[nH]ccc34)ccc2s1 [Example 77, 5-fluoro-N-(2-methyl-1,3-benzothiazol-5-yl)-2-((1H-pyrrolo[2,3-b]pyridin-4-ylmethyl)amino)-3-pyridinecarboxamide] | < 500 |
